# According to patent US9901592B2 (priority 2008, dated 2018):
# Read-outs that look alike come from different tables or passages of the source.
# Legend:
# Type in all cases: cell-based
# M. hominis = M. hominis (13 isolates)
# [1] = tested on: intraphagocytic L. pneumophila ATCC 33153 (THP-1)
# S. pyogenes [2] = conditions: strain 2132 Macrolide-S
# M. catarrhalis = assay: microbe, parasite or virus in culture; conditions: Moraxella catarrhalis
# S. pyogenes [3] = assay: microbe, parasite or virus in culture; conditions: for MIC: Streptococcus pyogenes
# M. genitalium = M. genitalium (5 isolates)
# S. pneumoniae = assay: microbe, parasite or virus in culture; conditions: for MIC: Streptococcus pneumoniae
# M. fermentans = conditions: Mycoplasmopsis fermentans; M. fermentans (15 isolates)
# M. pneumoniae = assay: microbe, parasite or virus in culture; conditions: Mycoplasmoides pneumoniae
structure (smiles),measurement,setting,value
"CC[C@H]1OC(=O)[C@H](C)[C@@H](O[C@H]2C[C@@](C)(OC)[C@@H](O)[C@H](C)O2)[C@H](C)[C@@H](O[C@@H]2O[C@H](C)C[C@H](N(C)C)[C@H]2O)[C@](C)(O)C[C@@H](C)CN(C)[C@H](C)[C@@H](O)[C@]1(C)O [AZI, azithromycin]",MIC Range,M. hominis,0.5 to 4 µg/mL
same,Cs,"[1]; L. pneumophila ATCC 33153, 48 h",181 ×MIC
same,"Cs, static concentration",[1]; intracellular L. pneumophila ATCC 33153,2.90 mg/L
same,single step mutation frequency,S. pyogenes [2]; 2 × MIC,<1.0 × 10^−10
same,single step mutation frequency,S. pyogenes [2]; 4 × MIC,<1.0 × 10^−10
same,single step mutation frequency,S. pyogenes [2]; 8 × MIC,<1.0 × 10^−10
same,MIC90,M. catarrhalis,0.06 µg/mL
same,strains with resistant clones / strains tested,S. pyogenes [3]; S. pyogenes,3/4
same,MIC,"S. pyogenes [3]; read-out: Initial MIC, strain 237 Macrolide-R [LA mutation], parent",4 µg/mL
same,MIC,"S. pyogenes [3]; read-out: Initial MIC, strain 2011 Macrolide-R [mef(A)], parent",4 µg/mL
same,MIC,"S. pyogenes [3]; read-out: Initial MIC, strain 2094 Macrolide-R [erm(A)], parent",4 µg/mL
same,MIC,"S. pyogenes [3]; read-out: Initial MIC, strain 2132 Macrolide-S, parent",0.06 µg/mL
same,MIC,"S. pyogenes [3]; read-out: Initial MIC, strain 2368 Macrolide-R [erm(B)], parent",> 64 µg/mL
same,MIC,"S. pyogenes [3]; read-out: MIC of parents of resistant clones, S. pyogenes",0.06 to 4 µg/mL
same,MIC,"S. pyogenes [3]; read-out: Parental MICs, S. pyogenes, 5 strains with varying resistotypes",0.06 to 4 µg/mL
same,MIC,"S. pyogenes [3]; read-out: Selected Resistance (MIC), strain 237 Macrolide-R [LA mutation], after serial passages in the drug",8 µg/mL
same,MIC,"S. pyogenes [3]; read-out: Selected Resistance (MIC), strain 2011 Macrolide-R [mef(A)], after serial passages in the drug",32 µg/mL
same,MIC,"S. pyogenes [3]; read-out: Selected Resistance (MIC), strain 2094 Macrolide-R [erm(A)], after serial passages in the drug",> 64 µg/mL
same,MIC,"S. pyogenes [3]; read-out: Selected Resistance (MIC), strain 2132 Macrolide-S, after serial passages in the drug",1 µg/mL
same,days until resistant clones (MIC increase),"S. pyogenes [3]; daily passages, max. 50",5 to 35 days
same,Retest MIC after 10 Antibioticfree Subcultures,"S. pyogenes [3]; strain 237 Macrolide-R [LA mutation], clone selected with CEM-101",4 µg/mL
same,Retest MIC after 10 Antibioticfree Subcultures,"S. pyogenes [3]; strain 237 Macrolide-R [LA mutation], clone selected with CLN",8 µg/mL
same,Retest MIC after 10 Antibioticfree Subcultures,"S. pyogenes [3]; strain 2011 Macrolide-R [mef(A)], clone selected with AZI",16 µg/mL
same,Retest MIC after 10 Antibioticfree Subcultures,"S. pyogenes [3]; strain 2094 Macrolide-R [erm(A)], clone selected with AZI",>64 µg/mL
same,Retest MIC after 10 Antibioticfree Subcultures,"S. pyogenes [3]; strain 2094 Macrolide-R [erm(A)], clone selected with CEM-101",4 µg/mL
same,Retest MIC after 10 Antibioticfree Subcultures,"S. pyogenes [3]; strain 2094 Macrolide-R [erm(A)], clone selected with CLN",16 µg/mL
same,Retest MIC after 10 Antibioticfree Subcultures,"S. pyogenes [3]; strain 2094 Macrolide-R [erm(A)], clone selected with CLR",>64 µg/mL
same,Retest MIC after 10 Antibioticfree Subcultures,"S. pyogenes [3]; strain 2094 Macrolide-R [erm(A)], clone selected with TEL",>64 µg/mL
same,Retest MIC after 10 Antibioticfree Subcultures,"S. pyogenes [3]; strain 2132 Macrolide-S, clone selected with AZI",1 µg/mL
same,Retest MIC after 10 Antibioticfree Subcultures,"S. pyogenes [3]; strain 2368 Macrolide-R [erm(B)], clone selected with CEM-101",>64 µg/mL
same,Retest MIC after 10 Antibioticfree Subcultures,"S. pyogenes [3]; strain 2368 Macrolide-R [erm(B)], clone selected with TEL",>64 µg/mL
same,MIC Range,M. genitalium,≦0.000032-0.005 μg/mL
same,strains with resistant clones / strains tested,S. pneumoniae; S. pneumoniae,3/4
same,MIC,"S. pneumoniae; read-out: Initial MIC, strain 1077 Macrolide-S, parent",0.03 µg/mL
same,MIC,"S. pneumoniae; read-out: Initial MIC, strain 1635 Macrolide-R [erm(A)], parent",2 µg/mL
same,MIC,"S. pneumoniae; read-out: Initial MIC, strain 3665 Macrolide-R [mef(A)], parent",8 µg/mL
same,MIC,"S. pneumoniae; read-out: Initial MIC, strain 7127 Macrolide-S [S20N in L4, A105V in L22], parent",0.06 µg/mL
same,MIC,"S. pneumoniae; read-out: MIC of parents of resistant clones, S. pneumoniae (CEM-101: 7 strains)",0.03 to 2 µg/mL
same,MIC,"S. pneumoniae; read-out: Parental MICs, S. pneumoniae, 8 strains with varying resistotypes",0.03 to 8 µg/mL
same,MIC,"S. pneumoniae; read-out: Selected Resistance MIC, strain 3665 Macrolide-R [mef(A)], after serial passages in the drug",16 µg/mL
same,MIC,"S. pneumoniae; read-out: Selected Resistance MIC, strain 7127 Macrolide-S [S20N in L4, A105V in L22], after serial passages in the drug",0.5 µg/mL
same,days until resistant clones (MIC increase),"S. pneumoniae; daily passages, min. 14, max. 50",14 to 29 days
same,Retest MIC after 10 Antibiotic-free Subcultures,"S. pneumoniae; strain 24 Macrolide-R [erm(B)], clone selected with CEM-101",>64 µg/mL
same,Retest MIC after 10 Antibiotic-free Subcultures,"S. pneumoniae; strain 24 Macrolide-R [erm(B)], clone selected with TEL",>64 µg/mL
same,Retest MIC after 10 Antibiotic-free Subcultures,"S. pneumoniae; strain 1076 Macrolide-R [erm(B)&mef(A)], clone selected with CEM-101",>64 µg/mL
same,Retest MIC after 10 Antibiotic-free Subcultures,"S. pneumoniae; strain 1076 Macrolide-R [erm(B)&mef(A)], clone selected with TEL",>64 µg/mL
same,Retest MIC after 10 Antibiotic-free Subcultures,"S. pneumoniae; strain 1077 Macrolide-S, clone selected with AZI",>64 µg/mL
same,Retest MIC after 10 Antibiotic-free Subcultures,"S. pneumoniae; strain 1077 Macrolide-S, clone selected with CEM-101",0.03 µg/mL
same,Retest MIC after 10 Antibiotic-free Subcultures,"S. pneumoniae; strain 1077 Macrolide-S, clone selected with CLN",>64 µg/mL
same,Retest MIC after 10 Antibiotic-free Subcultures,"S. pneumoniae; strain 1077 Macrolide-S, clone selected with TEL",>64 µg/mL
same,Retest MIC after 10 Antibiotic-free Subcultures,"S. pneumoniae; strain 1635 Macrolide-R [erm(A)], clone selected with AZI",>64 µg/mL
same,Retest MIC after 10 Antibiotic-free Subcultures,"S. pneumoniae; strain 1635 Macrolide-R [erm(A)], clone selected with CEM-101",4 µg/mL
same,Retest MIC after 10 Antibiotic-free Subcultures,"S. pneumoniae; strain 1635 Macrolide-R [erm(A)], clone selected with CLN",4 µg/mL
same,Retest MIC after 10 Antibiotic-free Subcultures,"S. pneumoniae; strain 1635 Macrolide-R [erm(A)], clone selected with CLR",>64 µg/mL
same,Retest MIC after 10 Antibiotic-free Subcultures,"S. pneumoniae; strain 2686 Macrolide-R [L4 mutation], clone selected with CEM-101",>64 µg/mL
same,Retest MIC after 10 Antibiotic-free Subcultures,"S. pneumoniae; strain 2686 Macrolide-R [L4 mutation], clone selected with CLR",>64 µg/mL
same,Retest MIC after 10 Antibiotic-free Subcultures,"S. pneumoniae; strain 2686 Macrolide-R [L4 mutation], clone selected with TEL",>64 µg/mL
same,Retest MIC after 10 Antibiotic-free Subcultures,"S. pneumoniae; strain 3009 Macrolide-R [23SrRNA mutation], clone selected with CEM-101",>64 µg/mL
same,Retest MIC after 10 Antibiotic-free Subcultures,"S. pneumoniae; strain 3009 Macrolide-R [23SrRNA mutation], clone selected with CLR",>64 µg/mL
same,Retest MIC after 10 Antibiotic-free Subcultures,"S. pneumoniae; strain 3665 Macrolide-R [mef(A)], clone selected with CEM-101",16 µg/mL
same,Retest MIC after 10 Antibiotic-free Subcultures,"S. pneumoniae; strain 3665 Macrolide-R [mef(A)], clone selected with CLR",8 µg/mL
same,Retest MIC after 10 Antibiotic-free Subcultures,"S. pneumoniae; strain 3665 Macrolide-R [mef(A)], clone selected with TEL",4 µg/mL
same,Retest MIC after 10 Antibiotic-free Subcultures,"S. pneumoniae; strain 7127 Macrolide-S [S20N in L4, A105V in L22], clone selected with AZI",1 µg/mL
same,Retest MIC after 10 Antibiotic-free Subcultures,"S. pneumoniae; strain 7127 Macrolide-S [S20N in L4, A105V in L22], clone selected with CEM-101",0.06 µg/mL
same,Retest MIC after 10 Antibiotic-free Subcultures,"S. pneumoniae; strain 7127 Macrolide-S [S20N in L4, A105V in L22], clone selected with CLN",0.03 µg/mL
same,Retest MIC after 10 Antibiotic-free Subcultures,"S. pneumoniae; strain 7127 Macrolide-S [S20N in L4, A105V in L22], clone selected with CLR",>64 µg/mL
same,Retest MIC after 10 Antibiotic-free Subcultures,"S. pneumoniae; strain 7127 Macrolide-S [S20N in L4, A105V in L22], clone selected with TEL",0.06 µg/mL
same,MIC50,M. fermentans,0.5 µg/mL
same,MIC90,M. fermentans,0.5 µg/mL
same,MIC50,M. pneumoniae,0.00025 µg/mL
same,MIC90,M. pneumoniae,0.0005 µg/mL
